According to patent US20130079274A1, “PHARMACEUTICAL COMPOSITIONS FOR TREATING DYSREGULATED INFLAMMATORY DISEASES” (priority 2009, published 2013):
Ends that are not written are not given here.

Key:
[1] = system: CLP-induced polymicrobial sepsis; assay: Mortality after cecal ligation and puncture (CLP) polymicrobial sepsis; type: in vivo, C57BL/6-mice; conditions: over 96 h
Excerpt: Maintenance and use of the animals were in accord with the German Animal Welfare Legislation. All experiments were approved by the local institutional animal care and research advisory committee and permitted by the local government of Lower Saxony (Germany). 47 male C57BL/6-mice (Charles River, Germany) with a weight of 20±3 g were used for the study. All animals were handled at room temperature for 14 days before treatment. Animals were maintained under standardized conditions with a controlled environment at 21±2° C., relative humidity of 50% and artificial light (14 hours light, 10 hours dark). They received a commercial pellet diet (altromin 1317) and water ad libitum. Analgetic treatment was performed in all animals (200 mg/kg body weight (BW) metamizol-sodium, Novalgin®, Hoechst, Unterschleiβheim, Germany) throughout the study.
All surgical procedures were performed after deeply anaesthetizing the animals with isoflurane. The mice were warmed to 36° C. using infrared warming lamps after having finished the surgical procedures. All mice received once daily subcutaneous injections of 1 ml sterile ringer's lactate for fluid replacement.
The surgical procedure was as follows: the cecum was exposed after a midline laparotomy and ligated distal to the ileocecal valve. Subsequently, the cecum was punctured twice using a 21 G needle and was returned to the abdominal cavity. […]

[2] = system: sepsis-related mortality; conditions: pretreatment four days before sepsis induction; cited from earlier work
[3] = system: CLP-induced polymicrobial sepsis; assay: Activity score after CLP; type: in vivo, C57BL/6-mice; conditions: 4 μg/kg i.p. simultaneously to CLP, vs control
Experimental: The surgical procedure was as follows: the cecum was exposed after a midline laparotomy and ligated distal to the ileocecal valve. Subsequently, the cecum was punctured twice using a 21 G needle and was returned to the abdominal cavity. The model also includes the protrusion of contents of the cecum to assure the presence of bacteria in the peritoneum. The closure of the abdomen was performed with double layer sutures. Data were obtained 4, 24 and 96 hours after surgery. Clinical data concerning mortality and activity were obtained once daily until 96 hours after instrumentation.
As a measure for clinical status, activity of mice was analyzed by using a previously established scoring system, see table 1. Within this score, the spontaneous activity, spontaneous food intake and response to exogenous stimuli was analyzed. The scoring of each animal (from 1=moribund to 6=very active) was independently performed in a blinded fashion by two persons and the mean of both values was recorded.

[4] = system: peritoneal macrophages; assay: Cytokine and chemokine secretion of isolated peritoneal macrophages after CLP; conditions: cells isolated 24 h after CLP, cultured 24 h; vs control, p>0.05
Experimental: The control group received saline as vehicle, the study group was substituted with 4 μg/kg MALP-2 i.p simultaneously to cecal ligation and puncture (CLP). All animals underwent CLP for induction of polymicrobial sepsis.
Peritoneal macrophages were isolated by lavage of the peritoneal cavity with 3×5 ml PBS containing 10 IU/ml heparin (Ratiopharm) 24 hours after CLP. Thereafter, cells were washed once with PBS and centrifuged at 400×g for 15 minutes at 4° C. The pellet was resuspended in 5 ml RPMI (Biochrom) containing 10% FCS and antibiotics (50 U/ml penicillin, 50 μg/ml streptomycin, Invitrogen; 2.5 μg/ml Amphotericin B, Biochrom). 106 cells were plated in a 24-well plate and incubated for 24 hours at 37° C., 95% humidity, and 5% CO2. At the end of the incubation period, the supernatants were removed and stored at −80° C. until analysis was performed.
Cytokine and chemokines in plasma and cell culture supernatant were measured with Multiplex and Simplex Kits according to manufacturer's instructions (BenderMed Systems, Vienna, Austria).

[5] = system: sepsis, septic shock and MODS; conditions: patients with sepsis; cited from earlier work

Row | Substance | total mortality ([1]; 4 μg/kg BW i.p. simultaneously to CLP, control 62.5%, p=0.031) [%] | mortality ([1]; MALP-2 i.p. 6 hours following CLP, p=0.047 vs vehicle) [%] | protection against sepsis-related mortality [2] | activity rates (activity score, table 1) ([3]; 24 to 72 hours following CLP, p<0.05) | activity rates (activity score, table 1) ([3]; after 96 hours) | IL-6, IL-10, TNF-α, MCP-1, MCP-3 or GM-CSF of peritoneal macrophages [4] | reduction of death of affected patients [5] [%]
1 | Macrophage-activating lipopeptide-2 (GNNDESNISFKEK; not fully specified) [MALP-2] | 12.5 | 22.2 | partial protection | increased | comparable between both groups | No differences | 
2 | activated protein C |  |  |  |  |  |  | 6.1
